# Reference: patent US11746103B2, “ALK-5 inhibitors and uses thereof” (Sumitomo Pharma Oncology, Inc., priority 2020, dated 2023)
# Legend:
# [1] = tested on: cancer associated fibroblast (CAF) genes in human primary dermal fibroblasts; assay: CAF gene suppression assay (qPCR); assay type: cell-based
# Description: Human primary dermal fibroblasts (ATCC) were divided into four groups: DMSO-TGFβ, DMSO+TGFβ (1 ng/mL), 30 nM EX-11+TGFβ (1 ng/mL), and 300 nM EX-11+TGFβ (1 ng/mL). Cells were treated for 24 hours, then mRNA was extracted, quantified, and reverse transcribed. qPCR was run for the following cancer associated fibroblast (CAF) genes: ACTA2, FAP, ITGB1, CD9, TAGLN, ANTXR1, SOC1, Lamp5, Col1A2, and TGFβ1, using the TaqMan system in a Quant Studio.
# 4T1-luc tumors = assay: 4T1 syngeneic TNBC model; assay type: in vivo, mouse
# Description: Tumor measurements were performed via digital calipers.
# The vehicle for anti-PD-1 inhibitor was PBS.
# The study dosing phase was 21 days. At the end of the study, animals were injected with luciferin, then sacrificed. Ex vivo imaging of the lung and liver tissue was performed to assess metastasis.
# pSmad2 in KGN cells = assay: pSmad2 Luminex assay in KGN cell line; assay type: cell-based; details: 2 hours, read-out: pSmad2 pathway inhibition
# Description: KGN cells were incubated with three 10-fold dilutions of EX-11 or DMSO for 2 hours. Cells were harvested and lysed, and protein concentration was quantified by BCA. 10 μg of total protein was added to the assay plate provided in the Milliplex TGFβ 6-plex kit with GAPDH MapMate beads, and the manufacturer's protocol was followed. Data was collected on the MagPix Xmap (Luminex).
smiles,measurement,setting,value
"Cc1cccc2c(Nc3ccnc(Nc4cccc(N5CCOCC5)c4)n3)cnnc12 [EX-11, N4-(8-methylcinnolin-4-yl)-N2-(3-morpholinophenyl)pyrimidine-2,4-diamine]","TAGLN, Lamp5 and TGFβ1 expression",[1]; 300 nM + TGFβ 1 ng/mL,returned to baseline
same,"decrease of FAP, SDC1 and Col1A2 expression from baseline",[1]; 300 nM + TGFβ 1 ng/mL,20-30%
same,TGFβ-induced upregulation of CAF gene expression,"[1]; 30 and 300 nM + TGFβ 1 ng/mL, 24 hours, all genes except CD9",dose dependently reversed
same,tumor growth inhibition (TGI) compared to vehicle,4T1-luc tumors; EX-11 at 75 mg/kg PO BID x 21 days,did not result in significant TGI
same,tumor growth inhibition (TGI) compared to vehicle,4T1-luc tumors; EX-11 at 150 mg/kg PO BID x 21 days,38%
same,ex vivo luminescence of liver (metastasis) compared to vehicle,4T1-luc tumors; EX-11 at 150 mg/kg where given,stronger reduction in luminescence
same,inhibition at 0.01 µM,"pSmad2 in KGN cells; Homo sapiens, 10 nM",17%
same,inhibition at 0.1 µM,"pSmad2 in KGN cells; Homo sapiens, 100 nM",74%
same,inhibition at 1 µM,"pSmad2 in KGN cells; Homo sapiens, 1,000 nM",97%
